# Test results from patent publication US20210278408A1, “METHODS OF TREATMENT OF CANCER WITH SUBSTITUTED PYRROLE AND PYRAZOLE COMPOUNDS AND DIAGNOSIS OF CANCERS SUSCEPTIBLE TO TREATMENT WITH SUBSTITUTED PYRROLE AND PYRAZOLE COMPOUNDS” (Bantam Pharmaceutical, LLC, priority 2018, published 2021).
# pIC50: −log10 of the molar value.
# System: 406 cancer cell lines, 73 blood tumor cell lines and 333 solid tumor cell lines
# Test: OmniScreen drug efficacy on cancer cell lines, fitted area under curve (AUC) of dose-response
# Format: cell-based
# Design: AUCs: unit not given beside the values
# Procedure: Predictive biomarkers for genes indicating responsiveness to a therapeutic compound can be determined using a cell-based screening technique, such as that offered under the name OmniScreen™ (Crown Biosciences).
# In one experimental study, predictive biomarkers were determined for Compound A197 efficacy on 406 cancer cell lines, 73 blood tumor cell lines and 333 solid tumor cell lines. Genomic data for the cell lines was downloaded from the Cancer Cell Line Encyclopedia Project (CCLE) website. Driver mutations were predicted on the Cancer Genome Interpreter Database; only driver mutations were used in the mutation related analysis.
# Dose-response curves were fitted by the 4-parameter model:
# in which top and bottom are the two asymptotes of the sigmoidal curve, EC50 is the relative IC50, and concentration x is in log−10 scale. To accommodate experimental errors, Bottom was allowed to go down to −20%, and Top was allowed to go up to 120%. The fitting error of a model is measured by
# σECS0 is the standard error of EC50. In general, such fitting error should be less than 40% for a model to be considered acceptable. The fitted area under curve (AUC) is calculated by
# where a=log(3, 10) and b=log(30000,10).
compound,measurement,setting,value
"Cc1nn(-c2nc(-c3ccc(C(F)(F)F)cc3)c(SC(C)C)s2)c(C(=O)O)c1-c1cccc(F)c1 [Compound A197, 4-(3-fluorophenyl)-1-(5-(isopropylthio)-4-(4-(trifluoromethyl)phenyl)thiazol-2-yl)-3-methyl-1H-pyrazole-5-carboxylic acid]",AUCs,"KHOS/NP, Bone",3.37
same,AUCs,"KP4, Pancreas",2.84
same,pIC50,"KP4, Pancreas",6.28
same,AUCs,"KU812, Blood",3.91
same,AUCs,"KYSE-410, Esophagus",3.51
same,AUCs,"L-82, Blood",2.94
same,AUCs,"LN-229, Brain&Nerves",3.59
same,AUCs,"LNCaP clone FGC, Prostate",2.48
same,AUCs,"LS123, Colorectum",4
same,AUCs,"LS1034, Colorectum",3.29
same,AUCs,"MCF7, Breast",3.76
same,AUCs,"MDA-MB-415, Breast",3.49
same,AUCs,"MDA-MB-436, Breast",3.33
same,AUCs,"MDA-MB-453, Breast",3.26
same,AUCs,"ME-180, Uterus",2.65
same,AUCs,"MES-SA, Uterus",2.67
same,AUCs,"MES-SA/DX5, Uterus",2.17
same,AUCs,"MFE-296, Uterus",3.24
same,AUCs,"MIA PaCa-2, Pancreas",3.15
same,AUCs,"MKN1, Stomach/Gastric",3.21
same,AUCs,"MKN45, Stomach/Gastric",3.54
same,AUCs,"MKN74, Stomach/Gastric",2.89
same,AUCs,"MM.1S, Blood",3.46
same,AUCs,"MS751, Uterus/Cervix",3.52
same,AUCs,"NCI-H69, Lung",3.75
same,AUCs,"NCI-H146, Lung",3.86
same,AUCs,"NCI-H187, Lung",2.89
same,AUCs,"NCI-H209, Lung",3.47
same,AUCs,"NCI-H226, Lung",2.98
same,AUCs,"NCI-H292, Lung",3.17
same,AUCs,"NCI-H441, Lung",3.85
same,AUCs,"NCI-H446, Lung",3.83
same,AUCs,"NCI-H460, Lung",3.13
same,AUCs,"NCI-H522, Lung",3.12
same,AUCs,"NCI-H526, Lung",3.6
same,AUCs,"NCI-H596, Lung",3.81
same,AUCs,"NCI-H661, Lung",3.43
same,AUCs,"NCI-H727, Lung",3.53
same,AUCs,"NCI-H747, Large intestine/Colorectum",3.19
same,AUCs,"NCI-H929, Blood",3.32
same,AUCs,"NCI-H1048, Lung",3.35
same,AUCs,"NCI-H1563, Lung",3.71
same,AUCs,"NCI-H1581, Lung",3.1
same,AUCs,"NCI-H1648, Lung",3.56
same,AUCs,"NCI-H1650, Lung",4.13
same,AUCs,"NCI-H1666, Lung",3.51
same,AUCs,"NCI-H1688, Lung",3.57
same,AUCs,"NCI-H1781, Lung",3.34
same,AUCs,"NCI-H1838, Lung",3.62
same,AUCs,"NCI-H1915, Lung",3.33
same,AUCs,"NCI-H1975, Lung",3.6
same,AUCs,"NCI-H2009, Lung",3.22
same,AUCs,"NCI-H2052, Lung",3.92
same,AUCs,"NCI-H2087, Lung",3.19
same,AUCs,"NCI-H2452, Lung",3.72
same,AUCs,"NCI-N87, Stomach/Gastric",3.09
same,AUCs,"NUGC-3, Stomach/Gastric",3.64
same,AUCs,"NUGC-4, Stomach/Gastric",3.11
same,AUCs,"OCI-AML3, Blood/Leukemia",3.62
same,pIC50,"OCUM1, OCUM-1, Stomach/Gastric",4.17
same,AUCs,"OCUM-1, Stomach/Gastric",3.57
same,AUCs,"OCUM-2D, Stomach/Gastric",3.12
same,pIC50,"OCUM-2D, Stomach/Gastric",5.94
same,AUCs,"OCUM-2M, Stomach/Gastric",2.88
same,pIC50,"OCUM-2M, Stomach/Gastric",6.07
same,AUCs,"OE19, Esophagus/gastric cardia",3.44
same,pIC50,"OSC19, OSC-19, Tongue",4.46
same,AUCs,"OSC-19, Tongue",3.85
same,AUCs,"OVCAR-3, Ovary",3.29
same,AUCs,"OVCAR-8, Ovary",3.05
same,AUCs,"PANC-1, Pancreas",3.13
same,AUCs,"PC-3, Prostate",3.82
same,pIC50,"PL45, PL45, Pancreas",6.00
same,AUCs,"PL45, Pancreas",3.37
same,AUCs,"RL95-2, Uterus",2.63
same,AUCs,"RPMI-2650, Nose",3.04
same,AUCs,"SCC-4, Tongue",3.69
same,AUCs,"SCC-9, Tongue",3.31
same,AUCs,"SCC-15, Tongue",3.56
same,AUCs,"SCC-25, Tongue",3.29
same,AUCs,"SCH, Stomach/Gastric",3.48
same,AUCs,"SF268, Brain&Nerves",3.24
same,AUCs,"SF-126, Brain&Nerves",3.39
same,AUCs,"SK-HEP-1, Liver",3.05
same,AUCs,"SK-MEL-5, Skin",4.12
same,AUCs,"SK-MEL-28, Skin",4.18
same,AUCs,"SK-OV-3, Ovary",3.53
same,AUCs,"SK-UT-1, Uterus",3.67
same,AUCs,"SNU-1, Stomach/Gastric",3.25
same,AUCs,"SNU-5, Stomach/Gastric",3.11
same,AUCs,"SNU-81, Colorectum",3.54
same,pIC50,"SNU-216, SNU-216, Stomach/Gastric",3.91
same,AUCs,"SNU-216, Stomach/Gastric",3.7
same,AUCs,"SNU-354, Liver",3.39
same,AUCs,"SNU-423, Liver",3.2
same,pIC50,"SNU-484, SNU-484, Stomach/Gastric",4.13
same,AUCs,"SNU-484, Stomach/Gastric",3.64
same,pIC50,"SNU-601, SNU-601, Stomach/Gastric",6.48
same,AUCs,"SNU-601, Stomach/Gastric",2.89
same,AUCs,"SNU-620, Stomach/Gastric",3.75
same,AUCs,"SNU-638, Stomach/Gastric",3.32
same,AUCs,"SNU-668, Stomach/Gastric",3.48
same,AUCs,"SNU-719, Stomach/Gastric",3.58
same,pIC50,"SNU-719, Stomach/Gastric",2.88
same,AUCs,"SNU-C5, Large intestine/Colorectum",3.5
same,AUCs,"SW48, Colorectum",3.74
same,AUCs,"SW480, Colorectum",3.62
same,pIC50,"SW579, SW579, Thyroid",4.30
same,AUCs,"SW579, Thyroid",3.73
same,AUCs,"SW626, Ovary",3.89
same,AUCs,"SW684, Soft tissue",3.77
same,AUCs,"SW756, Ovary",3.75
same,AUCs,"SW948, Colorectum",3.37
same,AUCs,"SW982, Soft tissue",3.99
same,AUCs,"SW1116, Colorectum",3.82
same,AUCs,"SW1271, Lung",3.9
same,pIC50,"SW1271, SW1271, Lung",3.30
same,AUCs,"SW1990, Pancreas",3.12
same,AUCs,"T47D, Breast",3.33
same,AUCs,"T84, Colorectum",3.57
same,AUCs,"TE-1, Esophagus",3.23
same,AUCs,"TF-1, Blood",3.24
same,AUCs,"TJ905, Brain&Nerves",3.68
same,AUCs,"TT, Thyroid",3.19
same,pIC50,"TT, Thyroid",5.66
same,AUCs,"U266B1, Blood",3.41
same,AUCs,"U-2 OS, Bone",3.44
same,AUCs,"UACC-812, Breast",3.52
same,AUCs,"UO.31, Kidney",3.58
same,AUCs,"WM-266-4, Skin",3.87
same,AUCs,"Y-79, Eye",3.72
same,AUCs,"YCC-1, Stomach/Gastric",3.54
same,AUCs,"YCC-2, Stomach/Gastric",3.66
same,AUCs,"YCC-6, Stomach/Gastric",2.95
same,pIC50,"YCC-6, Stomach/Gastric",5.20
same,AUCs,"YCC-10, Stomach/Gastric",3.64
same,pIC50,"YCC-10, Stomach/Gastric",3.39
same,AUCs,"YCC-11, Stomach/Gastric",3.34
same,AUCs,"ZR-75-30, Breast",3.44
